Here are results for one compound from EPA's ToxValDB 9.5 (doi:10.2903/j.efsa.2010.1389).

As usually defined, the NOAEL is the highest tested level that showed no adverse finding.

In brackets after ≈: the same amount, converted by molar mass. Where only a bound is given, the exact number is not on record here.

Data set [1] deals with Anas platyrhynchos.
Data set [2] has as its system Apis mellifera. The settings on record: acute; duration: 48 hours; dermal; mortality.
In data set [3] the test system is Bibionidae. The settings on record: chronic/long-term; duration: 28 days; development.
Data set [4] has as its system Colinus virginianus.
Data set [5] has as its system Daphnia magna. The settings on record: chronic/long-term; duration: 21 days; reproduction.
The subject of data set [6] is Hypoaspis aculeifer. The settings on record: chronic/long-term; duration: 14 days.
The test system of data set [7] is Lepomis macrochirus. The settings on record: acute; duration: 96 hours; mortality.
Data set [8] has as its system Oncorhynchus mykiss.
The subject of data set [9] is Rattus norvegicus.
For data set [10], the system named is Tagia sp.
Data set [11] concerns Typhlodromus pyri. The experiment in a line: LR50; higher = less toxic. The settings on record: acute; duration: 7 days; mortality.

As to `CC(C)Oc1cc(-n2nc(C(C)(C)C)oc2=O)c(Cl)cc1Cl` [Oxadiazon], the NOEC in [1] (reproductive) came out at 106 mg/kg-day; in data set [3], 5 mg/L; in data set [4] (reproduction developmental), 90.8 mg/kg-day; in data set [5], 0.03 mg/L; in data set [6] it was 339 mg/kg; in [8] (chronic/long-term, duration: 60 days, other), 0.00088 mg/L. In [10] (chronic/long-term, duration: 8 weeks, reproduction), the NOEC stood at 133 mg/kg. Besides, the LC50 in [1] (short-term, oral, feed, mortality) was greater than 1140 mg/kg-day; in [4] (acute, oral, diet, mortality), greater than 730 mg/kg-day; in data set [7] it was 1.2 µg/mL (≈ 3.48 µM); in data set [8] (acute, duration: 96 hours, mortality) it was 1.2 µg/mL (≈ 3.48 µM); in [10] (acute, duration: 14 days, mortality), greater than 1000 mg/kg. The LD50 in [2] is greater than 100 µg/piece; in [4] (acute, oral, mortality), greater than 2150 mg/kg-day; in [9] (acute, oral, mortality) it was greater than 5000 mg/kg-day. The no observed adverse effect level (NOAEL) in data set [9] (chronic) is 15 mg/kg-day; in data set [9] (chronic, duration: 2 years, organ weight), 0.36 mg/kg-day; in data set [9] (developmental, development), 12 mg/kg-day; in data set [9] (reproduction developmental, reproduction), 5 mg/kg-day. In data set [11], this compound came in with an LR50 of 150 g/ha.
